Experimental findings from the supplement of paper PMC11208160 are described below.
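Note: IS621 recombinase and bridge RNA in Escherichia coli cells.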

A short description of the series: recombinant barcode read abundance after kanamycin selection (control-corrected) (log10(CPM+1)); higher = more efficient recombination; sequences stand for … in AGTGCAGAGAAAATCGGCCAGTTTTCTCTGCCTGCAGTCCGCATGCCGT…AGATTTATGCAGCGGACTGCCTTTCTCCCAAAGTGATAAACCGGACAGTATCATGGACCGGTTTTCCCGGTAATCCGTATTTGCAAGGTTGGTTTCACT; site = the 11-nt target. How it is done: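 Pooled E. coli target-specificity screen for the IS621 bridge recombinase. Each library plasmid pairs an 11-nt target (CT core) with a bridge RNA whose target-binding loop (9-nt LTG + 4-nt RTG) is reprogrammed; the rest of the 177-nt WT IS621 bridge RNA scaffold is fixed. The plasmid is co-electroporated with a WT donor plasmid; recombinase is induced with 0.1 mM IPTG and recombinants are selected on kanamycin. Recombinant barcodes are sequenced, converted to CPM, averaged over two biological replicates and corrected by the unselected control CPM. Molecule = full bridge RNA written as DNA: LTG = specificity nt 1-9, RTG = reverse complement of specificity nt 8-11, in the WT scaffold.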
Consider “ACACTAGCTTGGGTTCTAACCTGTTGCTG (site ACACTAGCTCA)”, for which the “recombinant barcode read abundance (log10)” value came to 1.19. Consider “ACACTAGCTTGGGTTCTAACCTGTTGCTG (site ACAGTAGCTCA)”, for which the “recombinant barcode read abundance (log10)” value was 0.445. Under “ACACTAGCTTGGGTTCTAACCTGTTGCTG (site ACATTAGCTCA)” stands 0.0774; under “ACAGAGACTTGGGTTCTAACCTGTTGCGC (site ACAAAGACTGC)”, 0.372. The result for “ACAGAGACTTGGGTTCTAACCTGTTGCGC (site ACACAGACTGC)” reads 0.127; that for “ACAGAGACTTGGGTTCTAACCTGTTGCGC (site ACAGAGACTGC)”, 1.46. The result for “ACAGAGACTTGGGTTCTAACCTGTTGCGC (site ACATAGACTGC)” reads 0.221; that for “ACAGCCTCTTGGGTTCTAACCTGTTGCCT (site ACAGCCTCTAG)”, 2.84. “ACAGCCTCTTGGGTTCTAACCTGTTGCCT (site ACAGGCTCTAG)”: the “recombinant barcode read abundance (log10)” value worked out at 0.156. Consider “ACAGGCTCTTGGGTTCTAACCTGTTGCCT (site ACAGCCTCTAG)”, for which the “recombinant barcode read abundance (log10)” value stood at 0.0406. As for “ACAGGCTCTTGGGTTCTAACCTGTTGCCT (site ACAGGCTCTAG)”, the “recombinant barcode read abundance (log10)” value was determined as 1.82. The result for “ACAGGTACTTGGGTTCTAACCTGTTGCCT (site ACAGGTACTAG)” reads 1.18.

“ACAGGTACTTGGGTTCTAACCTGTTGCCT (site CCAGGTACTAG)”: the “recombinant barcode read abundance (log10)” value was 0.428. For the sequence “ACAGGTACTTGGGTTCTAACCTGTTGCCT (site GCAGGTACTAG)”, the “recombinant barcode read abundance (log10)” value turned out to be 0.0917. “ACAGGTACTTGGGTTCTAACCTGTTGCCT (site TCAGGTACTAG)”: the “recombinant barcode read abundance (log10)” value came to 0.456.

As to “ACAGGTCCTTGGGTTCTAACCTGTTGCGA (site ACAGGTCCTTC)”, the “recombinant barcode read abundance (log10)” value was 3.05. The result for “ACAGGTCCTTGGGTTCTAACCTGTTGCGA (site GTCATGTCTCA)” reads 0. The result for “ACAGTATCTTGGGTTCTAACCTGTTGCTG (site ACAGTATCTCA)” reads 0.479; that for “ACAGTATCTTGGGTTCTAACCTGTTGCTG (site TGCAATACTAT)”, 0. “ACATAGTCTTGGGTTCTAACCTGTTGCCT (site ACATAGTCTAG)”: the “recombinant barcode read abundance (log10)” value stood at 1.75. Regarding “ACATAGTCTTGGGTTCTAACCTGTTGCCT (site AGATACTCTAG)”, the “recombinant barcode read abundance (log10)” value amounted to 0.0816. For “ACATATCCTTGGGTTCTAACCTGTTGCGT (site ACATATCCTAC)”, the “recombinant barcode read abundance (log10)” value came out at 1.78. The result for “ACATATCCTTGGGTTCTAACCTGTTGCGT (site ACCTACCCTAC)” reads 0.0409; that for “ACATGAACTTGGGTTCTAACCTGTTGCCT (site ACATGAACTAG)”, 1.47.

As to “ACATGAACTTGGGTTCTAACCTGTTGCCT (site ACCTGAACTAG)”, the “recombinant barcode read abundance (log10)” value was 0.0918. Under “ACATGAACTTGGGTTCTAACCTGTTGCCT (site ACGTGAACTAG)” stands 0.0989.

Consider “ACATGAACTTGGGTTCTAACCTGTTGCCT (site ACTTGAACTAG)”, for which the “recombinant barcode read abundance (log10)” value turned out to be 0.101. The result for “ACATGCACTTGGGTTCTAACCTGTTGCAT (site ACATGAACTAT)” reads 0.0673; that for “ACATGCACTTGGGTTCTAACCTGTTGCAT (site ACATGCACTAT)”, 1.05; that for “ACATGCACTTGGGTTCTAACCTGTTGCAT (site ACATGGACTAT)”, 0.0168. The result for “ACATGCACTTGGGTTCTAACCTGTTGCAT (site ACATGTACTAT)” reads 0.116. As to “ACATGTCCTTGGGTTCTAACCTGTTGCAT (site ACATGTCCTAA)”, the “recombinant barcode read abundance (log10)” value stood at 0.374. Take “ACATGTCCTTGGGTTCTAACCTGTTGCAT (site ACATGTCCTAC)”: the “recombinant barcode read abundance (log10)” value stood at 1.24. The result for “ACATGTCCTTGGGTTCTAACCTGTTGCAT (site ACATGTCCTAG)” reads 0.137; that for “ACATGTCCTTGGGTTCTAACCTGTTGCAT (site ACATGTCCTAT)”, 1.99. Under “ACATTGTCTTGGGTTCTAACCTGTTGCCT (site ACATTGTCTAG)” stands 1.73. For the sequence “ACATTGTCTTGGGTTCTAACCTGTTGCCT (site ACCTTGTCTAG)”, the “recombinant barcode read abundance (log10)” value came to 0.0705. Under “ACATTGTCTTGGGTTCTAACCTGTTGCCT (site ACGTTGTCTAG)” stands 0.0669; under “ACATTGTCTTGGGTTCTAACCTGTTGCCT (site ACTTTGTCTAG)”, 0.284. For “ACATTTACTTGGGTTCTAACCTGTTGCCT (site ACATTTACTAG)”, the “recombinant barcode read abundance (log10)” value is 0.0855.

As for “ACATTTACTTGGGTTCTAACCTGTTGCCT (site TCATATACTAG)”, the “recombinant barcode read abundance (log10)” value was found to be 0.242. As for “ACATTTCCTTGGGTTCTAACCTGTTGCAT (site ACATTTCCTAT)”, the “recombinant barcode read abundance (log10)” value came to 0.8. With “ACATTTCCTTGGGTTCTAACCTGTTGCAT (site TAGAACTCTGC)”, the “recombinant barcode read abundance (log10)” value amounted to 0.105.

Take “ACCAAAGCTTGGGTTCTAACCTGTTGCCA (site ACCAAAGCTTG)”: the “recombinant barcode read abundance (log10)” value was found to be 0.115. Under “ACCAAAGCTTGGGTTCTAACCTGTTGCCA (site ACCACAGCTAG)” stands 0.137. Under “ACCAAATCTTGGGTTCTAACCTGTTGCCG (site ACCAAATCTCG)” stands 0.0782. As for “ACCAAATCTTGGGTTCTAACCTGTTGCCG (site ACCAAATCTTA)”, the “recombinant barcode read abundance (log10)” value came out at 0.0479. The result for “ACCAAGACTTGGGTTCTAACCTGTTGCCG (site ACCAAGACTCG)” reads 0.373; that for “ACCAAGACTTGGGTTCTAACCTGTTGCCG (site TCCAAGACTCT)”, 0.00901; that for “ACCAAGCCTTGGGTTCTAACCTGTTGCGG (site ACCAAGCCTCC)”, 1.36.

As for “ACCAAGCCTTGGGTTCTAACCTGTTGCGG (site GCCCAGCCTCC)”, the “recombinant barcode read abundance (log10)” value was determined as 0.295. The result for “ACCAATCCTTGGGTTCTAACCTGTTGCCT (site ACCAATACTAG)” reads 0.087; that for “ACCAATCCTTGGGTTCTAACCTGTTGCCT (site ACCAATCCTAG)”, 0.21; that for “ACCAATCCTTGGGTTCTAACCTGTTGCCT (site ACCAATGCTAG)”, 0.177. With “ACCAATCCTTGGGTTCTAACCTGTTGCCT (site ACCAATTCTAG)”, the “recombinant barcode read abundance (log10)” value worked out at 0.0626.

In the case of “ACCAGGTCTTGGGTTCTAACCTGTTGCCT (site AACAGGTCTAG)”, the “recombinant barcode read abundance (log10)” value amounted to 0.15. The result for “ACCAGGTCTTGGGTTCTAACCTGTTGCCT (site ACCAGGTCTAG)” reads 1.59; that for “ACCAGGTCTTGGGTTCTAACCTGTTGCCT (site AGCAGGTCTAG)”, 0.208; that for “ACCAGGTCTTGGGTTCTAACCTGTTGCCT (site ATCAGGTCTAG)”, 0.09. As for “ACCAGTCCTTGGGTTCTAACCTGTTGCTG (site ACCAGTCCTCA)”, the “recombinant barcode read abundance (log10)” value came to 1.97. On to “ACCAGTCCTTGGGTTCTAACCTGTTGCTG (site ACCAGTCCTTA)”, for which the “recombinant barcode read abundance (log10)” value was 0.0735. On to “ACCCAAACTTGGGTTCTAACCTGTTGCCT (site ACCCAAACTAG)”, for which the “recombinant barcode read abundance (log10)” value turned out to be 1.08. The result for “ACCCAAACTTGGGTTCTAACCTGTTGCCT (site ACCCAACCTAG)” reads 0.0677.

Regarding “ACCCAAACTTGGGTTCTAACCTGTTGCCT (site ACCCAAGCTAG)”, the “recombinant barcode read abundance (log10)” value came out at 0.161.

Consider “ACCCAAACTTGGGTTCTAACCTGTTGCCT (site ACCCAATCTAG)”, for which the “recombinant barcode read abundance (log10)” value was determined as 0.0553.

In the case of “ACCCGCTCTTGGGTTCTAACCTGTTGCCT (site ACCCGCTCTAG)”, the “recombinant barcode read abundance (log10)” value turned out to be 0.542. Under “ACCCGCTCTTGGGTTCTAACCTGTTGCCT (site TAGGATCCTTC)” stands 0.538. Take “ACCCTAACTTGGGTTCTAACCTGTTGCGG (site ACCCTAACTCC)”: the “recombinant barcode read abundance (log10)” value turned out to be 1.16. In the case of “ACCCTAACTTGGGTTCTAACCTGTTGCGG (site ACCTTAGCTCC)”, the “recombinant barcode read abundance (log10)” value worked out at 0. In the case of “ACCCTATCTTGGGTTCTAACCTGTTGCCT (site ACCCTAACTCG)”, the “recombinant barcode read abundance (log10)” value worked out at 0.0342. The result for “ACCCTATCTTGGGTTCTAACCTGTTGCCT (site ACCCTATCTAG)” reads 1.39; that for “ACCCTCCCTTGGGTTCTAACCTGTTGCTA (site ACCCTCCCTTA)”, 2.47. As for “ACCCTCCCTTGGGTTCTAACCTGTTGCTA (site ACTCTACCTTA)”, the “recombinant barcode read abundance (log10)” value came to 0.136.
